Where only a bound is given, the exact number is not on record here.

T1 sequence (Q92918 whole entry): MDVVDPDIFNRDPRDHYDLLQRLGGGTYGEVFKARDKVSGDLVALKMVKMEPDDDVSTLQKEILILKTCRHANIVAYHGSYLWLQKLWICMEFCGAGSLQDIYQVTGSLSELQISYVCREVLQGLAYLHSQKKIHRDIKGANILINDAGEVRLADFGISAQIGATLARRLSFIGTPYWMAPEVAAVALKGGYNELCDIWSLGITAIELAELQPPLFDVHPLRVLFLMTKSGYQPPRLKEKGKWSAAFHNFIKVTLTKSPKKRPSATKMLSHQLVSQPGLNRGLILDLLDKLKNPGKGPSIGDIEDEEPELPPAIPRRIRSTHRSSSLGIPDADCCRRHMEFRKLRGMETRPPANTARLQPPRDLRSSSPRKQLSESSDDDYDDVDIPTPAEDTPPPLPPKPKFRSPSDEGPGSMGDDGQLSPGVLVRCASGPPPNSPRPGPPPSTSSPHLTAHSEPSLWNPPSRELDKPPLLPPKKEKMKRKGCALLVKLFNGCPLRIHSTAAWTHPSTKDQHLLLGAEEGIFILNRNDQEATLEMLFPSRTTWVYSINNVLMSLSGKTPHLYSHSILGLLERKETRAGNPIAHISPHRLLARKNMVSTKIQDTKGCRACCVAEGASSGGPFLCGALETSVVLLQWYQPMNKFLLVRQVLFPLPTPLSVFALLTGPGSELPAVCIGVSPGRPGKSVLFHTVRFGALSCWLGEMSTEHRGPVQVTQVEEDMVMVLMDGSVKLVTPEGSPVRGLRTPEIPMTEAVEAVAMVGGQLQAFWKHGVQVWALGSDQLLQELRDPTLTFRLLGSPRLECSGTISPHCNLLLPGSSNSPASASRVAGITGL

The assay has as its target T1, HPK1 (Homo sapiens, UniProt Q92918).
T1 construct: purchased Invitrogen
Kind of assay: HPK1 biochemical enzyme assay (microfluidic mobility shift, Caliper). The following applies: 1.5 nM HPK1 (Invitrogen), 1 mM ATP, 30 min preincubation, 60 min at RT, top concentration 3 μM; read-out: HPK1 1000UMATP caliper IC50. The method, boiled down: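 Mobility shift assay with 1.5 nM HPK1 at pH 7.4; compounds in ten-point titration (top final 3 μM) preincubated 30 min with enzyme. Reaction started with 1 mM ATP and 1 μM substrate, 5 mM MgCl2 final, run 60 min at RT before termination and readout.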
On to `O=C1NCc2c(-c3cncn3-c3ccccc3)ccc(Nc3ccc(N4CCNCC4)cn3)c21` [Compound I-75, 4-(1-phenyl-1H-imidazol-5-yl)-7-((5-(piperazin-1-yl)pyridin-2-yl)amino) isoindolin-1-one], for which the IC50 (usually the concentration at which inhibition is half-maximal) is less than 1000 nM.

Turning to `CN1CCN(c2ccc(Nc3cnc(-c4ccncc4)c4c3C(=O)NC4)nc2)CC1` [Compound I-15, 7-[[5-(4-methylpiperazin-1-yl)-2-pyridyl]amino]-4-(4-pyridyl)-2,3-dihydropyrrolo [3,4-c]pyridin-1-one], the half-inhibitory concentration (IC50) lay in the range of 1000 to 5000 nM.

In the case of `CNc1cc(-c2ccc(Nc3ccc(N4CCN(C)CC4)cn3)c3c2CNC3=O)ncn1` [Compound I-48, 4-[6-(methylamino)pyrimidin-4-yl]-7-[[5-(4-methylpiperazin-1-yl)-2-pyridyl]amino] isoindolin-1-one], the IC50 was less than 1000 nM.

Regarding `CN1CCN(c2ccc(Nc3ccc(-c4ccnnc4)c4c3C(=O)NC4)nc2)CC1` [Compound I-59, 7-((5-(4-methylpiperazin-1-yl)pyridin-2-yl)amino)-4-(pyridazin-4-yl)isoindolin-1-one], the IC50 is less than 1000 nM.

As to `CN1CCN(c2ccc(Nc3cnc(-c4cncn4C)c4c3C(=O)NC4)nc2)CC1` [Compound I-73, 4-(1-methyl-1H-imidazol-5-yl)-7-((5-(4-methylpiperazin-1-yl)pyridin-2-yl)amino)-2,3-dihydro-1H-pyrrolo[3,4-c]pyridin-1-one], the IC50 was less than 1000 nM.
